Results: patent US20050163852A1, “Process for loading and thermodynamically activating drungs on polymers by means of supercritical fluids” (priority 2002, published 2005)

Experiment: Activation level by Differential Scanning Calorimetry (fraction of crystalline form)
Assay type: physicochemical
Settings: DSC, ΔHmelting/ΔH0 normalized to drug assayed in the polymer
Procedure: The presence of amorphous, nanocrystalline or crystal phase can be detected by means of Differential Scanning Calorimetry (DSC). Compared to the sharp melting peak of the drug crystal, the nanocrystals present a broader peak with a markedly lower maximum of temperature (I. Colombo et al. 4th Int. Conf. Pharm. Technol., 1986; F. Carli et al. Acta Pharm. Jugosl. 38, 361, 1988).
In the examples, the activation level is expressed as the fraction of crystalline form. It is determined by comparing the enthalpy relative to the melting of the crystals in the polymer (ΔHmelting) to that of pure drug (ΔH0). The ΔHmelting/ΔH0 ratio, normalized in accordance with the drug assayed in the polymer, is then considered equal to the fraction of crystalline form. The higher the amount of crystals (higher crystallinity), the lower the thermodynamic activation level of the drug.

Crystallinity (ibuprofen, supercritical CO2)	Crystallinity (ibuprofen, supercritical ethylene)	Crystallinity (nimesulide, supercritical CO2)	Structure (SMILES)
100%	100%		CC(C)Cc1ccc(C(C)C(=O)O)cc1 (stereo not drawn) [Ibuprofen, ibuprofen]
		100%	CS(=O)(=O)Nc1ccc([N+](=O)[O-])cc1Oc1ccccc1 [Nimesulide, nimesulide]
